Experimental data taken from publication PMC10746543, “Design principles for cyclin K molecular glue degraders” (Nature Chemical Biology, 2023).
Several values for one entry are separate records, joined by “and”; a condition that tells them apart may be missing. Equal entries are not always repeated.

Assays:
[1] = target: T1, CDK9–cyclin T (Homo sapiens, UniProt P50750); experiment: Lanthascreen kinase binding assay, CDK9
T1 construct: purchased Thermo Fisher
Protocol: Lanthascreen experiments were performed using commercially available reagents (Thermo Fisher) and according to the manufacturer’s instructions.

[2] = target: T2, CDK12 (Homo sapiens, UniProt Q16531+Q9NYV4); experiment: Label-free quantitative mass spectrometry in MDA-MB-231 cells, CDK12; type: cell-based
T2 construct: endogenous in cells; host or cells: MDA-MB-231
Protocol: (§1) MDA-MB-231 cells were treated with DMSO or a cyclin K degrader compound at 1 µM for 5 h. Cells were collected by centrifugation and washed with phosphate-buffered saline before snap freezing in liquid nitrogen. Cells were lysed by addition of lysis buffer (8 M urea, 50 mM NaCl, 50 mM 4-(2-hydroxyethyl)-1-piperazineethanesulfonic acid (EPPS) pH 8.5, and protease and phosphatase inhibitors) and homogenization by bead beating (BioSpec) for three repeats of 30 s at 2,400 rpm. Bradford assay was used to determine the final protein concentration in the clarified cell lysate. Then 50 µg of protein for each sample was reduced, alkylated and precipitated using methanol/chloroform as previously described, and the resulting washed precipitated protein was allowed to air dry. Precipitated protein was resuspended in 4 M urea, 50 mM HEPES pH 7.4, followed by dilution to 1 M urea with the addition of 200 mM EPPS, pH 8. Proteins were first digested with LysC (1:50; enzyme:protein) for 12 h at room temperature. The LysC digestion was diluted to 0.5 M urea with 200 mM EPPS pH 8 followed by digestion with trypsin (1:50; enzyme:protein) for 6 h at 37 °C. Sample digests were acidified with formic acid to a pH of 2–3 before desalting using C18 solid phase extraction plates (SOLA, Thermo Fisher Scientific). Desalted peptides were dried in a vacuum-centrifuged and reconstituted in 0.1% formic acid for liquid chromatography–mass spectrometry analysis.
(§2) Data were collected using a TimsTOF Pro2 (Bruker Daltonics) coupled to a nanoElute LC pump (Bruker Daltonics) via a CaptiveSpray nano-electrospray source. Peptides were separated on a reversed-phase C18 column (25 cm × 75 µm inner diameter, […], IonOpticks) containing an integrated captive spray emitter. Peptides were separated using a 50 min gradient of 2–30% buffer B (acetonitrile in 0.1% formic acid) with a flow rate of 250 nl min^−1 and column temperature maintained at 50 °C.
(§3) Data-dependent acquisition (DDA) was performed in Parallel Accumulation-Serial Fragmentation (PASEF) mode to determine effective ion mobility windows for downstream diaPASEF data collection. The ddaPASEF parameters included: 100% duty cycle using accumulation and ramp times of 50 ms each, one Trapped Ion Mobility Spectrometry(TIMS)-MS scan and ten PASEF ramps per acquisition cycle. The TIMS-MS survey scan was acquired between 100 m/z and 1,700 m/z and 1/K0 of 0.7–1.3 V s cm^−2. Precursors with one to five charges were selected, and those that reached an intensity threshold of 20,000 arbitrary units were actively excluded for 0.4 min. The quadrupole isolation width was set to 2 m/z for m/z < 700 and 3 m/z for m/z > 800, with the m/z between 700 m/z and 800 m/z being interpolated linearly. […] To perform diaPASEF, the precursor distribution in the DDA m/z-ion mobility plane was used to design an acquisition scheme for data-independent acquisition (DIA) data collection that included two windows in each 50 ms diaPASEF scan. Data were acquired using 16 of these 25 Da precursor double window scans (creating 32 windows) that covered the diagonal scan line for doubly and triply charged precursors, with singly charged precursors able to be excluded by their position in the m/z-ion mobility plane. These precursor isolation windows were defined between 400 m/z and 1,200 m/z and 1/K0 of 0.7–1.3 V s cm^−2.
(§4) DirectDIA mode includes first extracting the DIA data into a collection of MS2 spectra which are searched using Spectronaut’s Pulsar search engine. The search results are then used to generate a spectral library which is then employed for the targeted analysis of the DIA data. MS/MS spectra were searched against a Swissprot human database (January 2021). Database search criteria largely followed the default settings for directDIA including: tryptic with two missed cleavages, fixed carbomidomethylation of cysteine, and variable oxidation of methionine and acetylation of protein N-termini and precursor Q-value (FDR) cut-off of 0.01. […]

[3] = tested on: cyclin K; experiment: Label-free quantitative mass spectrometry in MDA-MB-231 cells, cyclin K; type: cell-based, human
Protocol: as §1, §2, §3, §4

[4] = target: CDK12; parameters: method as in PMID 30065029; conditions: read-out: CDK12 binding affinity; cited from earlier work
[5] = label-free quantitative MS, replicate values
[6] = normalised to DMSO = 1, replicate values

T2 sequence (Q9NYV4 whole entry): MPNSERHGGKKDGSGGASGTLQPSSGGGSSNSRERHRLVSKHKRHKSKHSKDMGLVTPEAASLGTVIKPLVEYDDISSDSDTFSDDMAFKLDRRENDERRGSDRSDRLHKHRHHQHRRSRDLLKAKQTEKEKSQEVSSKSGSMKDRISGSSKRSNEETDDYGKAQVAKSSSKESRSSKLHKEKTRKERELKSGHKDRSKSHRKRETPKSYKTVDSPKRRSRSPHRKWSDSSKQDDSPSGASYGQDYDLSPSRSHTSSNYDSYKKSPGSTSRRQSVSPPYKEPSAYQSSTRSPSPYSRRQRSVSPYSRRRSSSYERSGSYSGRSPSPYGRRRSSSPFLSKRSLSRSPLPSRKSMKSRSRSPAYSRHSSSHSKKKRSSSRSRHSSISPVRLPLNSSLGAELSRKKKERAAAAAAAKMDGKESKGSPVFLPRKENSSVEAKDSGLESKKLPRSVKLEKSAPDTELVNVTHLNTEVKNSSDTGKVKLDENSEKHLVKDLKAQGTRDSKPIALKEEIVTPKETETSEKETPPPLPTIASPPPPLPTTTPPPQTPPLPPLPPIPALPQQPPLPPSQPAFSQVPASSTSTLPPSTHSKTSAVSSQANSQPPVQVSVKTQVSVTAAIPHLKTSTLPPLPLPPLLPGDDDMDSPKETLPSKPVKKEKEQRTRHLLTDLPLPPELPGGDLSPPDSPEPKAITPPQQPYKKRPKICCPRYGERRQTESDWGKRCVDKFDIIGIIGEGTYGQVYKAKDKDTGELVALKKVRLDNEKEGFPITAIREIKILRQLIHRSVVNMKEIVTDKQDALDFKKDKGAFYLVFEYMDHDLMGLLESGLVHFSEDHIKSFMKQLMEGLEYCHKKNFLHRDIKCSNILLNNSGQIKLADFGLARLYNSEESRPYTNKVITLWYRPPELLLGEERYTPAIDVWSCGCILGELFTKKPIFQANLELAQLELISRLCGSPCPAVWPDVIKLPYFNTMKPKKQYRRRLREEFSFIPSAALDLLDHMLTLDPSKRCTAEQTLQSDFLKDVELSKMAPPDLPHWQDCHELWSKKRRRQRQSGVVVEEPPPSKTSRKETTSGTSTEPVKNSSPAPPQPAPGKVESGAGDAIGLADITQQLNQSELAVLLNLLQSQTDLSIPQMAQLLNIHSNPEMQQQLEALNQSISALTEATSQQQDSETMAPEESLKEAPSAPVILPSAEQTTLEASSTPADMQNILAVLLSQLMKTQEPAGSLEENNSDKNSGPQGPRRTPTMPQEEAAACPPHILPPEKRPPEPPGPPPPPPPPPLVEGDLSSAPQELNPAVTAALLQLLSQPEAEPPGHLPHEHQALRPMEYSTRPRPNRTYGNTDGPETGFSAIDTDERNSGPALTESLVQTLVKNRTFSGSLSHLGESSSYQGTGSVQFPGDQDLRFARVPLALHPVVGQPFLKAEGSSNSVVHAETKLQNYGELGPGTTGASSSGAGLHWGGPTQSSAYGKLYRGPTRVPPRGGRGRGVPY
T2 sequence (O75909 whole entry partner): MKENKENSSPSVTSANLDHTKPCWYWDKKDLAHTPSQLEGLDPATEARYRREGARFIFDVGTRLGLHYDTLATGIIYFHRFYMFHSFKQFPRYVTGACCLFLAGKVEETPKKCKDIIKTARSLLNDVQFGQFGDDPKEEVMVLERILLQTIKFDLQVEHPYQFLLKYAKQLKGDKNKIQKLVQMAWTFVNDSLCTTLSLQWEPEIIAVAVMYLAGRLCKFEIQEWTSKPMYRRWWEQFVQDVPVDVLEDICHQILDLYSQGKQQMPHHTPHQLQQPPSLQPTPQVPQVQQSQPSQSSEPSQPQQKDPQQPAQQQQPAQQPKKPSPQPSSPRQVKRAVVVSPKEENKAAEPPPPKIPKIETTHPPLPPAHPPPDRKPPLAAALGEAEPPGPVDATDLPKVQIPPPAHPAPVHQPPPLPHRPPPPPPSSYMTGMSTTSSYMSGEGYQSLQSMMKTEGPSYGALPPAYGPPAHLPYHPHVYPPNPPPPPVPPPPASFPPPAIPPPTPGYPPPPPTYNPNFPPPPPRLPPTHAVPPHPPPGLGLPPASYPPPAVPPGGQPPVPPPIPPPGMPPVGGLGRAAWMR
T2 sequence (Q16531 2-1140 limits assumed): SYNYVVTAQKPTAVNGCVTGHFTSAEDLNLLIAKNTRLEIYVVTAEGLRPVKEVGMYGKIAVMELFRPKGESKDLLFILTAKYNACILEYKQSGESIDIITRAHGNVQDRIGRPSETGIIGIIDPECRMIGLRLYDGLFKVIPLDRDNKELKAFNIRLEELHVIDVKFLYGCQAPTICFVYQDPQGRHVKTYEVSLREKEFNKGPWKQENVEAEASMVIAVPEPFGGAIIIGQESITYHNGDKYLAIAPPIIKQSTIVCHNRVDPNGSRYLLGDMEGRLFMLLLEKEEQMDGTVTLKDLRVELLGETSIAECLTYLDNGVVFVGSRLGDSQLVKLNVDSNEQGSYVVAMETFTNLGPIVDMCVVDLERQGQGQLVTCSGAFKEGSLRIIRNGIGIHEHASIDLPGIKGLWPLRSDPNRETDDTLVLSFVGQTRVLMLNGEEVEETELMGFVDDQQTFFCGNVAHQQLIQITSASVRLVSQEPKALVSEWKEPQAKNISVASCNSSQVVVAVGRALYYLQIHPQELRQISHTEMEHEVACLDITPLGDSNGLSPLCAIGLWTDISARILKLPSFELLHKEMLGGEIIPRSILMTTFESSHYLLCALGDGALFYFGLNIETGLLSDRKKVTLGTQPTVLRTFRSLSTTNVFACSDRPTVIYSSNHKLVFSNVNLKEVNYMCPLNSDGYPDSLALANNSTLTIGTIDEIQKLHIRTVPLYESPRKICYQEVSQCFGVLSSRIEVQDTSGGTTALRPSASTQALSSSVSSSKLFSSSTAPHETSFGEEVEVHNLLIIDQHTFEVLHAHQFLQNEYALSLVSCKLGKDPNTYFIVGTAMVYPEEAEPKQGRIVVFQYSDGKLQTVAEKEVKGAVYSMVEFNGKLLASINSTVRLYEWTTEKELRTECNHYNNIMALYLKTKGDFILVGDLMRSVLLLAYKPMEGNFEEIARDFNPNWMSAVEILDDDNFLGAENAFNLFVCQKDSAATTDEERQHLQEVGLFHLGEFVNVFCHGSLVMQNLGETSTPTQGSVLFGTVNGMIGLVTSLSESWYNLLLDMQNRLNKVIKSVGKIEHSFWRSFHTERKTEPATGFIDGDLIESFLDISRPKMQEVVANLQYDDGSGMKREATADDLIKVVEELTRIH
T1 sequence (P50750 whole entry): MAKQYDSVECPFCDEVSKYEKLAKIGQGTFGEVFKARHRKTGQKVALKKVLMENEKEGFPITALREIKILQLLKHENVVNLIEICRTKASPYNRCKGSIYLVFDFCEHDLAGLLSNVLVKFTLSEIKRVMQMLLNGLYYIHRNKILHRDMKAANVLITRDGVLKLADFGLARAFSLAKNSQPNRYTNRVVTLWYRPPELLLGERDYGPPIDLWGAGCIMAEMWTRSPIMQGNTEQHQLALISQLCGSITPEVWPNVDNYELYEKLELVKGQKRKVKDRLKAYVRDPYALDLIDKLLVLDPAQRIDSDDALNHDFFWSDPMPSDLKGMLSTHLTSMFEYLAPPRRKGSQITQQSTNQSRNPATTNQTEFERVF
T1 sequence (O60563 whole entry partner): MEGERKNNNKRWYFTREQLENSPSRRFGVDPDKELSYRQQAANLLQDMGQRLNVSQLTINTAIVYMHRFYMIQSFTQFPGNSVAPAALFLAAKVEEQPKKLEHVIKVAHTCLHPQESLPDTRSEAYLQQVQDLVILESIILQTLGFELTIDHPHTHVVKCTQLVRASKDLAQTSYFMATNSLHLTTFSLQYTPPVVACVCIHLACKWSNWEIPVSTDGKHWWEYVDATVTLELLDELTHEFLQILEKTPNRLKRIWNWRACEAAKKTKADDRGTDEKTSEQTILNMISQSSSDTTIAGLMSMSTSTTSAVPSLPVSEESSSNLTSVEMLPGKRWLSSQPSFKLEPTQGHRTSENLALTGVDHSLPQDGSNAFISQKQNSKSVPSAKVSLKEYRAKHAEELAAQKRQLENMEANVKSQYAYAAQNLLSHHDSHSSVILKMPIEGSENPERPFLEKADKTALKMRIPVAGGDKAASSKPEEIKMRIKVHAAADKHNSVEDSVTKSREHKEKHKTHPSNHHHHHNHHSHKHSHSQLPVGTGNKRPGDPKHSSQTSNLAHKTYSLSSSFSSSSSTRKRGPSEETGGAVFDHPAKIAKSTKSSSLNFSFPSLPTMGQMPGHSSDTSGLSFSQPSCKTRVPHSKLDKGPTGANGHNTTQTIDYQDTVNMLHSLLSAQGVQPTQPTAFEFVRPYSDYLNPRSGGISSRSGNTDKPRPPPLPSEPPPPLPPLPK

IC50 ([1]; Lanthascreen, average, Extended Data Fig. 8, read-out: CDK9 IC50): 120 nM
Lanthascreen TR-FRET signal (raw ratio), sheet CDK9 ([1]; compound 0.038147 nM, fourth titration set (r37), triplicates): 0.0408 and 0.04808 and 0.04479
Lanthascreen TR-FRET signal (raw ratio), sheet CDK9 ([1]; compound 0.038147 nM, second titration set (r13), duplicates): 0.01436 and 0.01414
Lanthascreen TR-FRET signal (raw ratio), sheet CDK9 ([1]; compound 0.152588 nM, fourth titration set (r37), triplicates): 0.0398 and 0.0481 and 0.0499
Lanthascreen TR-FRET signal (raw ratio), sheet CDK9 ([1]; compound 0.152588 nM, second titration set (r13), duplicates): 0.01385 and 0.01395
Lanthascreen TR-FRET signal (raw ratio), sheet CDK9 ([1]; compound 0.610352 nM, fourth titration set (r37), triplicates): 0.03905 and 0.04639 and 0.04821
Lanthascreen TR-FRET signal (raw ratio), sheet CDK9 ([1]; compound 0.610352 nM, second titration set (r13), duplicates): 0.01357 and 0.01395
Lanthascreen TR-FRET signal (raw ratio), sheet CDK9 ([1]; compound 9.76563 nM, fourth titration set (r37), triplicates): 0.03561 and 0.04225 and 0.04097
Lanthascreen TR-FRET signal (raw ratio), sheet CDK9 ([1]; compound 9.76563 nM, second titration set (r13), duplicates): 0.01332 and 0.01366
Lanthascreen TR-FRET signal (raw ratio), sheet CDK9 ([1]; compound 39.0625 nM, fourth titration set (r37), triplicates): 0.02645 and 0.03287 and 0.03192
Lanthascreen TR-FRET signal (raw ratio), sheet CDK9 ([1]; compound 39.0625 nM, second titration set (r13), duplicates): 0.01225 and 0.01118
Lanthascreen TR-FRET signal (raw ratio), sheet CDK9 ([1]; compound 156.25 nM, fourth titration set (r37), triplicates): 0.01751 and 0.01989 and 0.01852
Lanthascreen TR-FRET signal (raw ratio), sheet CDK9 ([1]; compound 156.25 nM, second titration set (r13), duplicates): 0.008604 and 0.00887
Lanthascreen TR-FRET signal (raw ratio), sheet CDK9 ([1]; compound 625 nM, fourth titration set (r37), triplicates): 0.008779 and 0.01074 and 0.01058
Lanthascreen TR-FRET signal (raw ratio), sheet CDK9 ([1]; compound 625 nM, second titration set (r13), duplicates): 0.005642 and 0.005316
Lanthascreen TR-FRET signal (raw ratio), sheet CDK9 ([1]; compound 2500 nM, fourth titration set (r37), triplicates): 0.006189 and 0.006358 and 0.00654
Lanthascreen TR-FRET signal (raw ratio), sheet CDK9 ([1]; compound 2500 nM, second titration set (r13), duplicates): 0.00388 and 0.003855
Lanthascreen TR-FRET signal (raw ratio), sheet CDK9 ([1]; compound 10000 nM, fourth titration set (r37), triplicates): 0.00467 and 0.004911 and 0.00523
Lanthascreen TR-FRET signal (raw ratio), sheet CDK9 ([1]; compound 10000 nM, second titration set (r13), duplicates): 0.003154 and 0.003151
CDK12 peptide count [2, 5]: 562.617 and 625.634
CDK12 peptide count (DMSO-normalised) [2, 6]: 0.6251 and 0.6462
Structure (SMILES): C[C@H](C(=O)Nc1nc2ccccc2[nH]1)N1Cc2ccccc2C1=O [compound 919278]
cyclin K abundance (label-free MS) ([3]; individual replicates, sheet EDF7): 525.324 and 551.956
cyclin K abundance (label-free MS) [3, 5]: 525.324 and 551.956
CCNK peptide count (DMSO-normalised) [3, 6]: 0.287 and 0.307
average CCNK peptide count ([3]; sheet EDF7): 538.64
Kd [4]: 5600 nM
